In paper PMC4140839 (PLoS ONE, 2014):

Biological target: T1, RsASML (Ralstonia pseudosolanacearum, UniProt Q8XPM9)
T1 construct: gene RSp1609
Test: biochemical

T1 sequence (Q8XPM9 30-476 limits assumed): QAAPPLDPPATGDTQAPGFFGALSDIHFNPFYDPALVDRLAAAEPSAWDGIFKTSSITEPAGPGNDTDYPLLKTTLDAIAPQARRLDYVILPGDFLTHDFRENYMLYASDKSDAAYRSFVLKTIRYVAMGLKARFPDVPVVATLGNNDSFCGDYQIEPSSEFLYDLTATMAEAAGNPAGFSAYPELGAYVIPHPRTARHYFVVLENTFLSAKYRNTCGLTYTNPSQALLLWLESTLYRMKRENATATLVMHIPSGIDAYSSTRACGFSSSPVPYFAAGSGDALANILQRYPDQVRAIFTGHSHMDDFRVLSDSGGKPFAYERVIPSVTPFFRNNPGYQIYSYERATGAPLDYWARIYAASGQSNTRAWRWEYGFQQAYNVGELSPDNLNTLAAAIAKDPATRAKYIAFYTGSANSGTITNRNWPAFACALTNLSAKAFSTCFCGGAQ

Row | SMILES | IC50
1 | C[N+](C)(C)CCOP(=O)([O-])OC[C@H](O)CO [L-α-glycerolphosphocholine] | 64.6 µM
2 | Nc1nc2c(ncn2[C@@H]2O[C@H](COP(=O)(O)OP(=O)(O)OP(=O)(O)O)[C@@H](O)[C@H]2O)c(=O)[nH]1 [GTP] | 44.2 µM
3 | Nc1ccn([C@@H]2O[C@H](COP(=O)(O)OP(=O)(O)OP(=O)(O)O)[C@@H](O)[C@H]2O)c(=O)n1 [CTP] | 1500 µM
4 | Nc1ncnc2c1ncn2[C@@H]1O[C@H](CO)[C@@H](O)[C@H]1O [Adenosine] | 243 µM
5 | O=c1ccn([C@@H]2O[C@H](COP(=O)(O)OP(=O)(O)OP(=O)(O)O)[C@@H](O)[C@H]2O)c(=O)[nH]1 [UTP] | 1360 µM
6 | C[N+](C)(C)CCOP(=O)([O-])O [Phosphocholine] | 4430 µM
7 | O=P(O)(O)OC[C@H](O)CO [L-α-glycerolphosphate] | 746 µM
8 | O=P(O)(O)O [Phosphate] | 265 µM
9 | Cc1cn([C@H]2C[C@H](O)[C@@H](COP(=O)(O)OP(=O)(O)OP(=O)(O)O)O2)c(=O)[nH]c1=O [TTP] | 201 µM
10 | Cc1cn([C@H]2C[C@H](O)[C@@H](COP(=O)(O)O)O2)c(=O)[nH]c1=O [TMP] | 35.9 µM
11 | Nc1ncnc2c1ncn2[C@@H]1O[C@H](COP(=O)(O)OP(=O)(O)O)[C@@H](O)[C@H]1O [ADP] | 0.0705 µM
12 | NC(=O)c1ccc[n+]([C@@H]2O[C@H](COP(=O)(O)OP(=O)(O)OC[C@H]3O[C@@H](n4cnc5c(N)ncnc54)[C@H](O)[C@@H]3O)[C@@H](O)[C@H]2O)c1 [NAD^+] | 0.0663 µM
13 | Nc1ncnc2c1ncn2[C@@H]1O[C@H](COP(=O)(O)OP(=O)(O)OP(=O)(O)O)[C@@H](O)[C@H]1O [ATP] | 0.0586 µM
14 | Nc1ncnc2c1ncn2[C@@H]1O[C@H](COP(=O)(O)O)[C@@H](O)[C@H]1O [AMP] | 0.075 µM
15 | NC(=O)C1=CN([C@@H]2O[C@H](COP(=O)(O)OP(=O)(O)OC[C@H]3O[C@@H](n4cnc5c(N)ncnc54)[C@H](OP(=O)(O)O)[C@@H]3O)[C@@H](O)[C@H]2O)C=CC1 [β-NADPH] | 52.1 µM
